According to ChEMBL document CHEMBL1201862, “PubChem BioAssay data set” (2004):
The source made the active and inactive calls.

Key:
Cytochrome P450 1A2 = biological target: T1, Cytochrome P450 1A2 (Homo sapiens, UniProt P05177);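 further: PubChem cytochrome P450 panel assay, CYP1A2 panel member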
T1 sequence (P05177 whole entry): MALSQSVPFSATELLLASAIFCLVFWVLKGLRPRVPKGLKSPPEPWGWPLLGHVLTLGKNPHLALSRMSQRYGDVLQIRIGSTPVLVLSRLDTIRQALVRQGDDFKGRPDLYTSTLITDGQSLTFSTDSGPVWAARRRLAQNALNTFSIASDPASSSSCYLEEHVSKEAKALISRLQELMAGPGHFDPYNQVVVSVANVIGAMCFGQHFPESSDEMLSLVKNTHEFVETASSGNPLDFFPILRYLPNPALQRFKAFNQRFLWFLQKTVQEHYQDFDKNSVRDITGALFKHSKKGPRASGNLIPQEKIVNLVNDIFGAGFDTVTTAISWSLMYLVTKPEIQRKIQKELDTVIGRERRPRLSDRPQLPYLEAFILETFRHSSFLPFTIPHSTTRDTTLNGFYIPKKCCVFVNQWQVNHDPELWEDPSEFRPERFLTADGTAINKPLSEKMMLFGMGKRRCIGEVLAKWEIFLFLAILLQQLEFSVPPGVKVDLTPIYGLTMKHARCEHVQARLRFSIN

[1] = biological target: T2, RNA-binding protein pos-1 (Caenorhabditis elegans, UniProt G5EF15); assay: inhibitors of POS-1/mex-3 RNA binding, dose response, biochemical, fluorescence polarization (AID 1964);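 further: purified POS-1 fused to maltose binding protein made in E. coli; potency of compounds blocking POS-1 binding to fluorescent RNA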
T2 sequence (G5EF15 whole entry): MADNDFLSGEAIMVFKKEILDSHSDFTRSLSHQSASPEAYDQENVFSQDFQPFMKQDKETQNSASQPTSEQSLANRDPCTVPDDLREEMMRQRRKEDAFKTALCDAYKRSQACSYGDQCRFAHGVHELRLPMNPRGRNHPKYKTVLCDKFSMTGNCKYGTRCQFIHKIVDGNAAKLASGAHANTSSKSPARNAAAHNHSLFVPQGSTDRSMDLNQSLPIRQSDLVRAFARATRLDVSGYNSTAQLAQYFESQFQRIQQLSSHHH

[2] = biological target: T3, Zinc finger protein mex-5 (Caenorhabditis elegans, UniProt Q9XUB2); assay: MEX-5/TCR-2 RNA interaction inhibitors, dose response, biochemical, C. elegans, fluorescence polarization (AID 1960)
T3 sequence (Q9XUB2 whole entry): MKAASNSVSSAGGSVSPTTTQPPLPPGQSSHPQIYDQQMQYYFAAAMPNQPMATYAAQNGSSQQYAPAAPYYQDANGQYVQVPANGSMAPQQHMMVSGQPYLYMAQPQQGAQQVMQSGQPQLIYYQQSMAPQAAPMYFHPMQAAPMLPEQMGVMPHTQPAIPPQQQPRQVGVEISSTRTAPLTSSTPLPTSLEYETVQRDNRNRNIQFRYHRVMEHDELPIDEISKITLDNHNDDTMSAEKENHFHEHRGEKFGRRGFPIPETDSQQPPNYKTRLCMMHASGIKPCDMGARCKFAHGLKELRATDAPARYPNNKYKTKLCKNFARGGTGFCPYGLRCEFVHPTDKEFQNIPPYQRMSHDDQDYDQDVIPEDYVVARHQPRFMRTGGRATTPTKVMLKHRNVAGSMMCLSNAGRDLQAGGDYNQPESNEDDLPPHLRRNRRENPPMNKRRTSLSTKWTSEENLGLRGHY

Cytochrome P450 2C19 = Cytochrome P450 2C19 (Homo sapiens, UniProt P33261); assay: Cytochrome panel assay with activity outcomes. Panel member name: p450-cyp2c19 Compounds with AC50 equal or less than 10 uM are considered active; assay type: functional
Cytochrome P450 2D6 = Cytochrome P450 2D6 (Homo sapiens, UniProt P10635);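 further: CYP2D6 member of a cytochrome P450 panel assay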
Cytochrome P450 3A4 = Cytochrome P450 3A4 (Homo sapiens, UniProt P08684);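 further: CYP3A4 tested as one member of a cytochrome P450 panel screen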
Cytochrome P450 2C9 = Cytochrome P450 2C9 (Homo sapiens, UniProt P11712)
[3] = biological target: T4, Corticotropin-releasing factor receptor 2/Corticotropin-releasing factor-binding protein (Homo sapiens, UniProt P24387+Q13324); assay: activators of CRF receptor 2 with binding protein – uHTS hits, confirmation (AID 602473); assay type: functional; settings: read-out: EC50_Mean
T4 sequence (Q13324 whole entry): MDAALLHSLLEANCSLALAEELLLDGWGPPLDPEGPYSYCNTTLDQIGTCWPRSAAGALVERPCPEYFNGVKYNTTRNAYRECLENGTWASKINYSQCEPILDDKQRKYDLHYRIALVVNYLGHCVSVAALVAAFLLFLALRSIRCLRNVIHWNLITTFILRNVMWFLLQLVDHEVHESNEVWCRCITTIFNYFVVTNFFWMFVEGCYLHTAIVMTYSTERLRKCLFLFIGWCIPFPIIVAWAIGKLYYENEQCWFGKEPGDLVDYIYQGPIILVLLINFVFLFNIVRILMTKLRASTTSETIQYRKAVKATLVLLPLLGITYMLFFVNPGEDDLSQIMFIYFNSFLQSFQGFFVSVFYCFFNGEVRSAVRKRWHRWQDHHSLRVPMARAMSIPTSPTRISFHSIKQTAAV
T4 sequence (P24387 whole entry): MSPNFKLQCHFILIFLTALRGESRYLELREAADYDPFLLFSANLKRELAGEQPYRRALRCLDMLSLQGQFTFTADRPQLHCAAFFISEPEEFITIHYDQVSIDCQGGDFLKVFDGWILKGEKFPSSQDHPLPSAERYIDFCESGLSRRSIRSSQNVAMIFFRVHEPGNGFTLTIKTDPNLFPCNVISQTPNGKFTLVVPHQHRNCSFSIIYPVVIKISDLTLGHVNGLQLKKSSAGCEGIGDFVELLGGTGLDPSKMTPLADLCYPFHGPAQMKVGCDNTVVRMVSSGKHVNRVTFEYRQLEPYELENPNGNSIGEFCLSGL

Chain of Cytochrome P450 2C19 (P33261 whole entry): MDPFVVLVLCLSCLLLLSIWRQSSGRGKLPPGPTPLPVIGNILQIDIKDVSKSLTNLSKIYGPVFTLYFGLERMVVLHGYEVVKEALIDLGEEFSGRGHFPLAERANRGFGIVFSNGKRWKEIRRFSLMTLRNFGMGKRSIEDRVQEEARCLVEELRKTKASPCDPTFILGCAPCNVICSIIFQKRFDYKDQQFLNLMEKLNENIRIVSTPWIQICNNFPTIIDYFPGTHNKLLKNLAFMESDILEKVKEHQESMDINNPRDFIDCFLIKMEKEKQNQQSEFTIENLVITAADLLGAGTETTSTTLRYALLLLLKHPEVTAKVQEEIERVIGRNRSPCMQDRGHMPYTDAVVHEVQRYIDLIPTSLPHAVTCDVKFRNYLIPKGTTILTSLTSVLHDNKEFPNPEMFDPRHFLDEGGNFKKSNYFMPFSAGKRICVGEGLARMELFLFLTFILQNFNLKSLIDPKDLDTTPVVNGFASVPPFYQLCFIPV
Chain of Cytochrome P450 2D6 (P10635 whole entry): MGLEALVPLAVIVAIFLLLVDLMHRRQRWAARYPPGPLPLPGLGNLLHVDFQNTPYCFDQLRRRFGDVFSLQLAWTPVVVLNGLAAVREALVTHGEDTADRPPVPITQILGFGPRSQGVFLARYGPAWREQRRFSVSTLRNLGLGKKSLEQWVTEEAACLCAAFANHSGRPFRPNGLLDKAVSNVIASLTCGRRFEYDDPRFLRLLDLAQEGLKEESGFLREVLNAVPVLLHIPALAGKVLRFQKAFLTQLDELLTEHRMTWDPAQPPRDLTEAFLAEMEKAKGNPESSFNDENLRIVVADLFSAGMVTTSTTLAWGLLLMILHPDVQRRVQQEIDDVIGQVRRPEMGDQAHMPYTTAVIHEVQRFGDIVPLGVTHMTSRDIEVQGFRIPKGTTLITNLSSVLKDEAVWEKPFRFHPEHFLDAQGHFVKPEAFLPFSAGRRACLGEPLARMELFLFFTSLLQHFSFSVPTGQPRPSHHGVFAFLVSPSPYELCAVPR
Chain of Cytochrome P450 2C9 (P11712 whole entry): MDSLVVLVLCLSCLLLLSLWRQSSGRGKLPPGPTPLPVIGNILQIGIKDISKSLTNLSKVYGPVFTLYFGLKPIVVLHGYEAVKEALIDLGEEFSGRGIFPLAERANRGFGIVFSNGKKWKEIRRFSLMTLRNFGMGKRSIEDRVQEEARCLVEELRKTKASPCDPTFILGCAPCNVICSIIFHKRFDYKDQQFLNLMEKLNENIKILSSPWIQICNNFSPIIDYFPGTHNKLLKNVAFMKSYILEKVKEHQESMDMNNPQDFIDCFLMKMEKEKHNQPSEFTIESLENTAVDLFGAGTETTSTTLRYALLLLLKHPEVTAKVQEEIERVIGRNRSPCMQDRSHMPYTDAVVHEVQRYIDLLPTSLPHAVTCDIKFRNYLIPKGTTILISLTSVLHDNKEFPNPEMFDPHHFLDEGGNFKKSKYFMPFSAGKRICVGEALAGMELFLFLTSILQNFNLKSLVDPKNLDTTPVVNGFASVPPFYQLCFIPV
Chain of Cytochrome P450 3A4 (P08684 whole entry): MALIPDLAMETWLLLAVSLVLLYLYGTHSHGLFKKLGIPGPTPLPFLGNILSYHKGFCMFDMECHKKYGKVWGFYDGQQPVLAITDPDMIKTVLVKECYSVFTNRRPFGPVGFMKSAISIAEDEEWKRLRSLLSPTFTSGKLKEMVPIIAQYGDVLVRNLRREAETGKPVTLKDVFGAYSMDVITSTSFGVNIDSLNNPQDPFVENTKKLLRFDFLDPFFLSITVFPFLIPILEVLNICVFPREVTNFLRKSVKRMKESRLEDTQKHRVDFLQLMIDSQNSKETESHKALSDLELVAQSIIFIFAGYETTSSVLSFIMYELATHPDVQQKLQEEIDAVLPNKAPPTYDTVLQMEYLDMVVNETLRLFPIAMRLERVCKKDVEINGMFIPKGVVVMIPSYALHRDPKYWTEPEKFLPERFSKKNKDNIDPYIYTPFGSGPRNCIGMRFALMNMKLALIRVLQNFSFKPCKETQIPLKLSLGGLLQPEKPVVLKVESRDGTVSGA

## Cc1cnc(CNc2ncncc2-c2ccc(C(=O)N(C)C)cc2)cn1
Cytochrome P450 1A2
  AC50: 20 µM (inconclusive)

## NC[C@H](CP(=O)(O)O)c1ccc(Cl)cc1
Cytochrome P450 1A2
  AC50: 39.8 µM (inconclusive)

## CCOC(=O)N1CCC(NC(=O)C(Cc2ccccc2)NC(=O)C2CCCCC2)CC1 (centres undefined)
[1]
  EC50: > 300 µM (not active)
[2]
  EC50: > 300 µM (not active)

## COC(=O)c1ccc(-n2c(C)cc(C(=O)COC(=O)CNS(=O)(=O)c3ccc(C)cc3)c2C)cc1
[1]
  EC50: > 300 µM (not active)
[2]
  EC50: > 300 µM (not active)

## OCCN1CCN(CCC=C2c3ccccc3Sc3ccc(Cl)cc32)CC1 [ZUCLOPENTHIXOL]
Cytochrome P450 2C19; read-out: AC50
  AC50: 2.51 µM (inconclusive)
Cytochrome P450 2D6
  AC50: 10 µM (inconclusive)
Cytochrome P450 3A4
  AC50: 12.6 µM (inconclusive)

## CCCc1c(O)nc(SCC(=O)N2CCCCC2)nc1O
[1]
  EC50: > 300 µM (not active)
[2]
  EC50: > 300 µM (not active)

## COc1ccc(-c2ccc(/C=C3\C(=O)N(c4ccccc4)N=C3c3ccccc3)o2)c([N+](=O)[O-])c1
Cytochrome P450 1A2
  AC50: 5.01 µM (inconclusive)

## CCN(CC)C(=O)CSc1nnc(C2CCCCC2)o1
Cytochrome P450 2C19; read-out: AC50
  AC50: 11.2 µM (inconclusive)

## Cc1nn2c(N3CCOCC3)c3c(nc2c1-c1ccccc1)CCCC3
[1]
  EC50: > 300 µM (not active)
[2]
  EC50: > 300 µM (not active)

## COc1ccc(C(=O)N2CCC3(CCN(Cc4ccc(C#N)cc4)CC3)CC2)cc1
Cytochrome P450 1A2
  AC50: 12.6 µM (inconclusive)
Cytochrome P450 2C9
  AC50: 31.6 µM (inconclusive)

## CCC(=O)Nc1ccc(C(=O)NNC(=O)c2cccs2)cc1
Cytochrome P450 2C19; read-out: AC50
  AC50: 0.891 µM (inconclusive)

## N#Cc1c(N)n(-c2ccc(C(=O)O)cc2)c2nc3ccccc3nc12
[1]
  EC50: > 300 µM (not active)
[2]
  EC50: > 300 µM (not active)

## O=C(COC(=O)CC(c1ccccc1)c1ccccc1)NCc1ccc(Cl)cc1
[3]
  EC50: > 53 µM (inactive)

## O=c1/c(=C\c2ccc(O)cc2)sc2nc(-c3ccccc3)c(-c3ccccc3)n12
[1]
  EC50: > 300 µM (not active)
[2]
  EC50: > 300 µM (inconclusive)

## N#Cc1cccc(NC(=O)N2CCCC3(CCN(C(=O)c4cc(C(F)(F)F)cc(C(F)(F)F)c4)CC3)C2)c1
Cytochrome P450 1A2
  AC50: 6.31 µM (inconclusive)

## COC(=O)c1cc(C(=O)OC)cc(-n2c(C)cc(C=O)c2C)c1
[1]
  EC50: 78.7 µM (active)
[2]
  EC50: > 300 µM (not active)

## O=C(c1cnccn1)N1CCC[C@@]2(CCN(c3ccccn3)C2)C1
Cytochrome P450 1A2
  AC50: 20 µM (inconclusive)

## CN(CCC(=O)O)C1=Nc2ccc(Cl)cc2C(c2ccccc2)=[N+]([O-])C1
Cytochrome P450 1A2
  AC50: 0.0631 µM (inconclusive)

## CCOC(=O)C1=C(CN2c3ccccc3CC2C)NC(=O)NC1c1ccccc1 (centres undefined)
Cytochrome P450 1A2
  AC50: 22.4 µM (inconclusive)
Cytochrome P450 2C9
  AC50: 25.1 µM (inconclusive)

## CCC/C=C(\CCC)C(NC(=O)c1ccc(-c2ccccc2)cc1)c1ccc(C(=O)OC)cc1 (centres undefined)
Cytochrome P450 1A2
  AC50: 0.631 µM (inconclusive)
Cytochrome P450 3A4
  AC50: 6.31 µM (inconclusive)

## O=C(NCCOc1ccccc1)C1Nc2ccc(OC(F)(F)F)cc2C2C=CCC12 (centres undefined)
[1]
  EC50: > 300 µM (not active)
[2]
  EC50: > 300 µM (not active)

## COc1cc(C(=O)Nc2ccc(-c3nnc(-c4ccco4)o3)cc2)cc(OC)c1OC
Cytochrome P450 2C19; read-out: AC50
  AC50: 6.31 µM (inconclusive)
Cytochrome P450 2C9
  AC50: 7.94 µM (inconclusive)

## CCC/C=C(\CCC)C(NC(=O)c1ccc(C(=O)OC)cc1)c1ccc(C(=O)OC)cc1 (centres undefined)
Cytochrome P450 2C19; read-out: AC50
  AC50: 10 µM (inconclusive)
Cytochrome P450 2D6
  AC50: 25.1 µM (inconclusive)

## N#C/C(=C\N1CCNC1=S)C(=O)c1ccc2ccccc2c1
Cytochrome P450 1A2
  AC50: 1.58 µM (inconclusive)
Cytochrome P450 2C9
  AC50: 3.16 µM (inconclusive)

## COc1cccc(Cn2c(=O)c(-c3ccccc3)nc3cnc(OC)nc32)c1
Cytochrome P450 2C19; read-out: AC50
  AC50: 39.8 µM (inconclusive)
Cytochrome P450 2D6
  AC50: 39.8 µM (inconclusive)
Cytochrome P450 1A2
  AC50: 15.8 µM (inconclusive)

## CCCC[C@@H]1C[C@H]1C(NC(=O)c1cccs1)c1ccc(-c2ccccc2)cc1 (some centres undefined)
Cytochrome P450 2C19; read-out: AC50
  AC50: 3.16 µM (inconclusive)
Cytochrome P450 1A2
  AC50: 2 µM (inconclusive)
Cytochrome P450 3A4
  AC50: 6.31 µM (inconclusive)

## CCNc1ncc2nc(CCc3ccccc3)c(=O)n(-c3ccccc3)c2n1
Cytochrome P450 2C19; read-out: AC50
  AC50: 31.6 µM (inconclusive)

## S=C(NCc1ccncc1)Nc1ccc(Cl)cc1Cl
[1]
  EC50: > 300 µM (not active)
[2]
  EC50: > 300 µM (not active)

## COc1cc(OC)c(/C=C2/C(=O)Nc3ccccc32)c(OC)c1
Cytochrome P450 2C19; read-out: AC50
  AC50: 31.6 µM (inconclusive)

## COc1ccccc1-c1ccc2ncnc(N3CCN(C)CC3)c2c1
Cytochrome P450 2C19; read-out: AC50
  AC50: 15.8 µM (inconclusive)
Cytochrome P450 2D6
  AC50: 39.8 µM (inconclusive)

## COc1ccc(OC)c2nc(O)c(CCNS(=O)(=O)c3ccccc3)cc12
Cytochrome P450 2C19; read-out: AC50
  AC50: 3.16 µM (inconclusive)
Cytochrome P450 3A4
  AC50: 14.1 µM (inconclusive)
Cytochrome P450 2C9
  AC50: 14.1 µM (inconclusive)

## O=C(O)/C=C\C(=O)NCc1ccccc1
Cytochrome P450 2C19; read-out: AC50
  AC50: 0.0158 µM (inconclusive)
Cytochrome P450 2D6
  AC50: 0.794 µM (inconclusive)

## O=C(CSc1nnc(-c2cccs2)n1-c1ccccc1)N1CCCC1
Cytochrome P450 2C19; read-out: AC50
  AC50: 28.2 µM (inconclusive)
Cytochrome P450 2D6
  AC50: 7.94 µM (inconclusive)
Cytochrome P450 3A4
  AC50: 28.2 µM (inconclusive)
Cytochrome P450 2C9
  AC50: 12.6 µM (inconclusive)

## CC(C)NS(=O)(=O)c1ccc(NC(=O)C(C)Oc2ccc(C(=O)c3ccccc3)cc2)cc1 (centres undefined)
[3]
  EC50: 4.6 µM (active)

## CCCS(=O)(=O)N1CCCC(C(=O)NCC2CCCO2)C1 (centres undefined)
Cytochrome P450 2C19; read-out: AC50
  AC50: 39.8 µM (inconclusive)
Cytochrome P450 2C9
  AC50: 8.91 µM (inconclusive)

## O=C(NNC(=O)c1csc(-c2cccnc2)n1)c1ccccc1
[1]
  EC50: > 300 µM (not active)
[2]
  EC50: > 300 µM (inconclusive)

## CCCCNCCOCCSc1ccc(Cl)cc1
Cytochrome P450 2C19; read-out: AC50
  AC50: 17.8 µM (inconclusive)
Cytochrome P450 3A4
  AC50: 14.1 µM (inconclusive)

## Cc1c(Nc2ncccc2C(=O)O)cccc1C(F)(F)F
Cytochrome P450 1A2
  AC50: 12.6 µM (inconclusive)

## CC(CP(=O)(O)O)NC(=O)Cc1ccccc1 (centres undefined)
Cytochrome P450 2C19
  AC50: inconclusive

## CCOC(=O)c1cc(=O)n2nc(-c3ccc(C)cc3)nc2s1
[1]
  EC50: > 300 µM (not active)
[2]
  EC50: > 300 µM (not active)

## CCOC(=O)c1ccc(-n2c(C)ccc2C)cc1
[1]
  EC50: > 300 µM (not active)
[2]
  EC50: > 300 µM (not active)
